Source: patent US20240041877A1, “DOSAGE REGIME AND METHOD FOR TREATING PULMONARY ARTERIAL HYPERTENSION” (Altavant Sciences GmbH, priority 2019, published 2024)

Assay: Part 2 (MAD): plasma pharmacokinetics after BID oral KAR5585 for 14 days (incl. accumulation ratios and dose proportionality)
[1] = 400 mg/dose Fasted Cohort 4, Day 1 AM, Mean
[2] = 400 mg/dose Fasted Cohort 4, Day 1 PM, Geo. Mean
[3] = 400 mg/dose Fasted Cohort 4, Day 1 PM, Mean
[4] = 400 mg/dose Fasted Cohort 4, Day 7 AM, Geo. Mean
[5] = 400 mg/dose Fasted Cohort 4, Day 7 AM, Mean
[6] = 400 mg/dose Fasted Cohort 4, Day 7 PM, Geo. Mean
[7] = 400 mg/dose Fasted Cohort 4, Day 7 PM, Mean
[8] = 400 mg/dose Fasted Cohort 4, Day 14, Geo. Mean
[9] = 400 mg/dose Fasted Cohort 4, Day 14, Mean
[10] = power model, PK Day 1 (AM), 100 to 400 mg KAR5585 repeat oral doses, fed
[11] = power model, PK Day 7 (AM), 100 to 400 mg KAR5585 repeat oral doses, fed
[12] = power model, PK Day 14 (AM), 100 to 400 mg KAR5585 repeat oral doses, fed

Excerpt: Food effect was to be evaluated in Part 1, Period 2.
Pharmacokinetic data were to be summarized descriptively.

SMILES: CCOC(=O)[C@@H]1CC2(CCN(c3cc(O[C@H](c4ccc(Cl)cc4-c4ccccc4)C(F)(F)F)nc(N)n3)CC2)CN1 [KAR5585, (S)-ethyl 8-(2-amino-6-((R)-1-(5-chloro-[1,1′-biphenyl]-2-yl)-2,2,2-trifluoroethoxy)pyrimidin-4-yl)-2,8-diazaspiro[4.5]decane-3-carboxylate]
- Cmax [1]: 81.8 ng/mL
- Cmax/D [1]: 0.205 (ng/mL)/mg
- AUC0-12 [2]: 501 ng·h/mL
- AUC0-24/D [2]: 0.950 (hr*ng/mL)/mg
- AUC0-∞ [2]: 633 ng·h/mL
- C12 [2]: 16.6 ng/mL
- CL/F [2]: 632 L/h
- Cmax/D [2]: 0.276 (ng/mL)/mg
- t1/2 [2]: 4.18 h
- AUC0-12 [3]: 528 ng·h/mL
- AUC0-24/D [3]: 1.01 (hr*ng/mL)/mg
- AUC0-∞ [3]: 657 ng·h/mL
- C12 [3]: 17.1 ng/mL
- CL/F [3]: 662 L/h
- Cmax [3]: 124 ng/mL
- Cmax/D [3]: 0.310 (ng/mL)/mg
- t1/2 [3]: 4.33 h
- AUC0-12 [4]: 473 ng·h/mL
- AUC0-∞ [4]: 577 ng·h/mL
- C12 [4]: 15.1 ng/mL
- CL/F [4]: 846 L/h
- Cmax [4]: 93.3 ng/mL
- Cmax/D [4]: 0.228 (ng/mL)/mg
- t1/2 [4]: 4.65 h
- AUC0-12 [5]: 483 ng·h/mL
- AUC0-∞ [5]: 588 ng·h/mL
- C12 [5]: 15.5 ng/mL
- CL/F [5]: 865 L/h
- Cmax [5]: 95.9 ng/mL
- Cmax/D [5]: 0.240 (ng/mL)/mg
- t1/2 [5]: 4.90 h
- AUC0-12 [6]: 394 ng·h/mL
- AUC0-24/D [6]: 1.09 (hr*ng/mL)/mg
- AUC0-∞ [6]: 534 ng·h/mL
- C12 [6]: 20.1 ng/mL
- CL/F [6]: 954 L/h
- Cmax [6]: 63.4 ng/mL
- Cmax/D [6]: 0.158 (ng/mL)/mg
- t1/2 [6]: 4.92 h
- AUC0-12 [7]: 404 ng·h/mL
- AUC0-24 [7]: 887 ng·h/mL
- AUC0-24/D [7]: 1.11 (hr*ng/mL)/mg
- AUC0-∞ [7]: 538 ng·h/mL
- C12 [7]: 20.8 ng/mL
- CL/F [7]: 969 L/h
- Cmax/D [7]: 0.172 (ng/mL)/mg
- t1/2 [7]: 4.93 h
- AUC0-12 [8]: 359 ng·h/mL
- AUC0-24 [8]: 433 ng·h/mL
- AUC0-24/D [8]: 1.08 (hr*ng/mL)/mg
- AUC0-∞ [8]: 465 ng·h/mL
- C12 [8]: 11.0 ng/mL
- CL/F [8]: 1110 L/h
- Cmax [8]: 85.3 ng/mL
- Cmax/D [8]: 0.213 (ng/mL)/mg
- t1/2 [8]: 6.08 h
- AUC0-12 [9]: 366 ng·h/mL
- AUC0-24 [9]: 444 ng·h/mL
- AUC0-24/D [9]: 1.11 (hr*ng/mL)/mg
- CL/F [9]: 1140 L/h
- Cmax/D [9]: 0.222 (ng/mL)/mg
- Tmax (400 mg/dose Fasted Cohort 4, Day 14, Median): 1.5 h
- steady-state plasma levels achieved by (BID oral KAR5585 for 14 days): ≤ 7 days
- Dose proportionality analysis, AUC0-12: Intercept estimate [10]: 0.969
- Dose proportionality analysis, AUC0-inf: Intercept estimate [10]: 0.817
- Dose proportionality analysis, Cmax: Intercept estimate [10]: 0.198
- Dose proportionality analysis, AUC0-12: Intercept estimate [11]: 1.51
- Dose proportionality analysis, Cmax: Intercept estimate [11]: 0.688
- Dose proportionality analysis, AUC0-12: Intercept estimate [12]: 2.37
- Dose proportionality analysis, Cmax: Intercept estimate [12]: 0.705
